From US12667619B2, “Integrin targeting ligands and uses thereof” (Arrowhead Pharmaceuticals, Inc., priority 2018, dated 2026)

Key:
ανβ6 = ανβ6 (Homo sapiens, UniProt P06756+P18564); test: IC50 binding activity, αvβ6 integrin
Text: As reported in the following Table 1, IC50 binding data was obtained for the integrin targeting ligands of Structures 1c, 2c, and 3c, as w ell as an RGD-mimetic peptide: […]

αvβ3 integrin = αvβ3 integrin (Homo sapiens, UniProt P05106+P06756); test: IC50 binding activity, αvβ3 integrin; details: read-out: IC50 ανβ3
Text: (§1) As reported in the following Table 1, IC50 binding data was obtained for the integrin targeting ligands of Structures 1c, 2c, and 3c, as w ell as an RGD-mimetic peptide:
(§2) Moreover, while the RGD-mimetic ligand is shown to have binding activity, the integrin targeting ligands of the present disclosure have increased stability, both with respect to serum stability in vim and chemical stability ex vim, compared to such peptide-based RGD-mimetic ligands.

αvβ5 integrin = αvβ5 integrin (Homo sapiens, UniProt P06756+P18084); test: IC50 binding activity, αvβ5 integrin; details: read-out: IC50 ανβ5
Text: as §1, §2

Sequence of ανβ6 (P06756 31-1048): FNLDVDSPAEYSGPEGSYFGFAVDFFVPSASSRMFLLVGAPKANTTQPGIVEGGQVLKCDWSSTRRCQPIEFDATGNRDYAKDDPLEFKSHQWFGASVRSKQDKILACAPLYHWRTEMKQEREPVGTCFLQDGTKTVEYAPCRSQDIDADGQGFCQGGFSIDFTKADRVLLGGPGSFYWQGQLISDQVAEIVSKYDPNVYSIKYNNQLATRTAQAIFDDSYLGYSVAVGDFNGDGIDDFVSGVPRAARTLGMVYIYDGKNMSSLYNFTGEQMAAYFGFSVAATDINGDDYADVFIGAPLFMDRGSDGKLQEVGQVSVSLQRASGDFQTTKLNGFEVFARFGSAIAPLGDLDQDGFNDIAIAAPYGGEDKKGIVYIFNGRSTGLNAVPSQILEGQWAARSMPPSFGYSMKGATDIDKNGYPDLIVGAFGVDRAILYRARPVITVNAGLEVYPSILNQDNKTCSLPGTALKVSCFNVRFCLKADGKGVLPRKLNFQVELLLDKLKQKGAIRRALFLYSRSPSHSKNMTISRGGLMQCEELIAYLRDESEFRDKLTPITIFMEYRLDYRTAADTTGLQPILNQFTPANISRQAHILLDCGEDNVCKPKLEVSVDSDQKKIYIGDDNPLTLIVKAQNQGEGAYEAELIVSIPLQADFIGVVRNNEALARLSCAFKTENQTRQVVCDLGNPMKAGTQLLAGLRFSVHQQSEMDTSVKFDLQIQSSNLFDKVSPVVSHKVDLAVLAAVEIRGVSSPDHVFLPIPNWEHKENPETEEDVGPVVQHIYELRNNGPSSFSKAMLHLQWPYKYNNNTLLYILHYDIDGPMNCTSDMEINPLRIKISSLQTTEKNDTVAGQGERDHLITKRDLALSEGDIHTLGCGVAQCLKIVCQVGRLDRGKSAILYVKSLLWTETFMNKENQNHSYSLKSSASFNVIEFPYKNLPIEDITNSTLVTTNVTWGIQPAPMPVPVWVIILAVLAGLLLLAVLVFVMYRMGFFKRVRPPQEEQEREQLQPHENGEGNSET
Sequence of ανβ6 (P18564 22-788): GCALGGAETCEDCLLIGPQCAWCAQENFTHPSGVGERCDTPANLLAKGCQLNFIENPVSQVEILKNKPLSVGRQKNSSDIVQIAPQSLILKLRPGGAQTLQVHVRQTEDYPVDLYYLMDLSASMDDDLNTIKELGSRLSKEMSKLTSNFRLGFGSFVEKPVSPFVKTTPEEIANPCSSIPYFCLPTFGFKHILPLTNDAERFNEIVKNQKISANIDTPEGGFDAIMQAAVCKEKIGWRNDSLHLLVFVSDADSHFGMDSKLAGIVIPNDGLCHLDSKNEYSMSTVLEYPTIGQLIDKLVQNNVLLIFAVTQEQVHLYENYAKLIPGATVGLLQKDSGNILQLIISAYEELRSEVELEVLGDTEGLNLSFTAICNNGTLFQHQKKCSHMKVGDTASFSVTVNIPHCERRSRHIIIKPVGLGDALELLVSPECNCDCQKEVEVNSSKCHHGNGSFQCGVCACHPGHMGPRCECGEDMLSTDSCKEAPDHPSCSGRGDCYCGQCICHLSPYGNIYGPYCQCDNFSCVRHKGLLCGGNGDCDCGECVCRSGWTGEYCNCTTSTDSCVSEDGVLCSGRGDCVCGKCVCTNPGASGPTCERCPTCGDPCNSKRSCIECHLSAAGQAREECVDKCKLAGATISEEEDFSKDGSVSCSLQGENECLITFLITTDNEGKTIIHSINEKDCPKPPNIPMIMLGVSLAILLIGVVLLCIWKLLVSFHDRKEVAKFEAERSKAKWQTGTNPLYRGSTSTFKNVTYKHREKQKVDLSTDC
Sequence of αvβ5 integrin (P06756 31-1048): as the sequence (P06756 31-1048) above
Sequence of αvβ5 integrin (P18084 24-799): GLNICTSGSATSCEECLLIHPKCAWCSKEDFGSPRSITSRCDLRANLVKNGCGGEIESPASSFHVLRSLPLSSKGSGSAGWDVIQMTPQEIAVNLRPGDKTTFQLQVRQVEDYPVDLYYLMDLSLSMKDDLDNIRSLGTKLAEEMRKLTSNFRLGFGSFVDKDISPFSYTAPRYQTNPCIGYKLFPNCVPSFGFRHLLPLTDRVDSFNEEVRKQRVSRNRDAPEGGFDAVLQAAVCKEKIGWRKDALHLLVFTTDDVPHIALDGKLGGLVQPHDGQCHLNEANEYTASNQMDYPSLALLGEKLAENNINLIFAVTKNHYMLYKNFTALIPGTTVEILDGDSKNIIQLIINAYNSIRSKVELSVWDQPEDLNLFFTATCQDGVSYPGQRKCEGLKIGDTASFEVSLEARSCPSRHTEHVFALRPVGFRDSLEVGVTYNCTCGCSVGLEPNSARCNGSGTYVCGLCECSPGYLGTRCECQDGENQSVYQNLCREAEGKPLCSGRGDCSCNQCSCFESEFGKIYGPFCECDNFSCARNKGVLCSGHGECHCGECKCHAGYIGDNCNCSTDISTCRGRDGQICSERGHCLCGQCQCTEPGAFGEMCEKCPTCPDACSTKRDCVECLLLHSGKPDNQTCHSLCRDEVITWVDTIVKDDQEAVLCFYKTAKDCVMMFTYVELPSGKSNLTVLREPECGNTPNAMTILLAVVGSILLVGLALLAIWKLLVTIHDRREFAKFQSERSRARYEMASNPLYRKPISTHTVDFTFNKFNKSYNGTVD
Sequence of αvβ3 integrin (P06756 31-1048): as the sequence (P06756 31-1048) above
Sequence of αvβ3 integrin (P05106 27-788): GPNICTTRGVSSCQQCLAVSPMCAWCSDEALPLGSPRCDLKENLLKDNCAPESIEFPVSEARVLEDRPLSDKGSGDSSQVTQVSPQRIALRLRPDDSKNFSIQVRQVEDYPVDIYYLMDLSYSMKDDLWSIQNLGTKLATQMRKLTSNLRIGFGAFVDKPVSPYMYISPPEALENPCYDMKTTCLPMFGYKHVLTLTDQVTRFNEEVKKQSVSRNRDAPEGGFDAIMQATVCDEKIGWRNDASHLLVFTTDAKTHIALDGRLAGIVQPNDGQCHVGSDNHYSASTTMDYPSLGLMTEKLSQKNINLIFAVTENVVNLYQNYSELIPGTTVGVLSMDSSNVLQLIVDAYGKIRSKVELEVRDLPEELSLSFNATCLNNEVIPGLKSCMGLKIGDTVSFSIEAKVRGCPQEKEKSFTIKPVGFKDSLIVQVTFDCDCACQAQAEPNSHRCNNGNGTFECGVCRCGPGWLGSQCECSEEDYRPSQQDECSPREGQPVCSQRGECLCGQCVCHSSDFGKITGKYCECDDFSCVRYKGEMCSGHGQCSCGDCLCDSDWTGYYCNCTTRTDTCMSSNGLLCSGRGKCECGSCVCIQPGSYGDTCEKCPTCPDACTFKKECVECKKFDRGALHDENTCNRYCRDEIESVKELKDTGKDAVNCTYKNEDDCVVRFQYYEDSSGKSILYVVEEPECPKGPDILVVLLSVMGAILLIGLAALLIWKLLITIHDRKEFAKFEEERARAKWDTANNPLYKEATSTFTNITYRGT

SMILES | IC50 (ανβ6) [nM] | IC50 (αvβ3 integrin) [nM] | IC50 (αvβ5 integrin) [nM]
[N-]=[N+]=NCCOCCOCCOCCOCCC(=O)NCCCOc1ccc([C@H](CC(=O)O)N2CCN(CCCc3ccc4c(n3)NCCC4)C2=O)cn1 [Structure 1c, (S)-3-(6-((1-azido-15-oxo-3,6,9,12-tetraoxa-16-azanonadecan-19-yl)oxy)pyridin-3-yl)-3-(2-oxo-3-(3-(5,6,7,8-tetrahydro-1,8-naphthyridin-2-yl)propyl)imidazolidin-1-yl)propanoic acid] | 5.3 | 0.3 | 0.6
[N-]=[N+]=NCCOCCOCCOCCOc1ccc([C@H](CC(=O)O)N2CCN(CCCc3ccc4c(n3)NCCC4)C2=O)cc1F [Structure 2c, (S)-3-(4-(2-(2-(2-(2-azidoethoxy)ethoxy)ethoxy)ethoxy)-3-fluorophenyl)-3-(2-oxo-3-(3-(5,6,7,8-tetrahydro-1,8-naphthyridin-2-yl)propyl)imidazolidin-1-yl)propanoic acid] | 8.9 | 0.3 | 5.6
